The source of these data is US20250282720A1, “ALKYLSULFENYL THIOCARBONATES: PRECURSORS TO HYDROPERSULFIDES POTENTLY ATTENUATE OXIDATIVE STRESS” (The Johns Hopkins University, priority 2021, published 2025).

Entries after “also recorded” stand apart in the source; their conditions may differ.

A short description of data set [1]: Decomposition of precursors in the presence of thiol (NAC / N-acetyl cysteine methyl ester), HPLC. The following applies: 5 equiv NAC, PBS pH 7.4, HPLC. Type of data set: physicochemical. Here is the method: Initially, the decomposition of 1a was analyzed in the presence of 5 equiv of N-acetylcysteine (NAC) in PBS (pH 7.4) by HPLC. […] To investigate the mechanism, this reaction was monitored by UPLC-MS. […] Additionally, a small amount of unsymmetrical dialkyl polysulfide (pink highlight, R^1SSnSR^2, n=0-3) is observed, likely formed via NAC reaction with symmetrical dialkyl polysulfides (Scheme 1-5, eq. 7). As expected, a new peak at 5.65 min corresponding to N-acetyl cysteine-thiocarbonate 9a also is observed, confirming thiol attack at the perthiocarbonate carbonyl carbon of 1a to release RSSH. Due to the unstable nature of RSSH under these experimental conditions, the yield of the by-product 9a was measured as an indication of RSSH yield. The observation of RSSH-derived polysulfides formation as major products led us to anticipate the efficient formation of by-product 9a. […] The lower observed yield of 9a is likely due to its further reaction with RSSH under these conditions. […]
To a solution of N-acetyl cysteine methyl ester (500 μM) in pH 7.4 phosphate buffer saline (100 mM) containing DTPA (100 μM), precursor 1a or 8 (100 μM) was added. […] At different time points, an aliquot of the reaction mixture (500 μL) was withdrawn and transferred to pre-cooled 0.1% formic acid (500 μL) and analyzed using HPLC. […]

Data set [2] has as its system aconitase. As to the kind of experiment: Aconitase protein expression, immunoblot. The data set is classed as cell-based, human. Here is the method:
Mitochondrial aconitase levels are unaffected by treatment of AST and H2O2. Immunoblot analysis was conducted utilizing enriched-mitochondrial pellets. Results are expressed as SEM with n≥3 for all concentrations;
Given these encouraging results, it was critical to determine whether the RSSH's positive impact on aconitase activity was due to enhanced Fe—S cluster biosynthesis or increased aconitase expression.
In general terms: A western blot detects proteins with antibodies after separation by electrophoresis.

Data set [3] relates to ferritin heavy chain 1 (FTH1). As to the kind of experiment: FTH1 protein expression, immunoblot. Type of data set: cell-based, human. The following applies: 25 and 50 μM for 4 h, erastin 24 h. Here is the method: FIG. 14A, FIG. 14B, FIG. 14C, and FIG. 14D show: FIG. 14A and FIG. 14B pretreatment of AST (25 and 50 μM) for 4 h followed by 24 h treatment with erastin ([…]) immunoblots for indicated proteins of lysates derived from FA fibroblasts. FIG. 14C and FIG. 14D, relative abundance of TFR1 and FTH1 proteins normalized to β-actin loading control. Results are the means+SEM of n=3 for all concentrations. *P<0.05, **P<0.005, comparisons with the erastin group. Group comparisons are determined by a one-way analysis of variance (ANOVA) with Dunnet's correction post-hoc test using GraphPad Prism 8. Samples were run on the same gel for SDS-Page gel electrophoresis in nonconsecutive lanes;
To test this hypothesis, we studied the effect of RSSH on TFR1 and FTH1 expression levels. We anticipated that the impacts of RSSH would result in downregulation of TFR1 and upregulation of FTH1. […] Feng et al., 2020; Park and Chung, 2019.

Another data set relates to FA fibroblasts. As to the kind of experiment: Protection against erastin-induced ferroptosis in FA fibroblasts. The data set is classed as cell-based, human. Particulars: 25 μM and 50 μM, 4 h pretreatment, erastin 24 h. Here is the method:
FIG. 10A, pretreatment of AST with varying concentrations in FA fibroblasts (GM04078, Coriell Institute) for 4 h followed by 4 h treatment with H2O2. Viability was measured using CCK8 assay. FIG. 10B, pretreatment of AST with varying concentrations in FA fibroblasts for 4 h followed by treatment with erastin for 24 h. Results are expressed as SEM with n≥3 for all concentrations. **P<0.005, for comparisons with the erastin group. Group comparisons are determined by a one-way analysis of variance (ANOVA) with Dunnet's correction post-hoc test using GraphPad Prism 8;
We next sought to determine whether AST would protect FA fibroblasts against erastin-induced cell death. Erastin is an inducer of ferroptosis, an iron-dependent form of cell death. It acts as an inhibitor of the cystine glutamate antiporter (system Xc), inhibiting the import of cystine, which leads to downstream depletion of glutathione (GSH) and ultimately to elevated ROS production.

Another data set relates to FA fibroblasts (GM04078). As to the kind of experiment: Cytoprotection against H2O2 stress in FA fibroblasts, CCK8. Type of data set: cell-based, human. The following applies: 4 h pretreatment, H2O2 75 μM for 4 h. Here is the method:
FIG. 10A, pretreatment of AST with varying concentrations in FA fibroblasts (GM04078, Coriell Institute) for 4 h followed by 4 h treatment with H2O2. Viability was measured using CCK8 assay. FIG. 10B, pretreatment of AST with varying concentrations in FA fibroblasts for 4 h followed by treatment with erastin for 24 h. […] Group comparisons are determined by a one-way analysis of variance (ANOVA) with Dunnet's correction post-hoc test using GraphPad Prism 8;
Initially, we measured the cytotoxicity of AST in FA skin fibroblasts (GM04078), obtained from the Coriell Institute, to ensure that the RSSH donor itself is not cytotoxic. […] We then measured the ability of AST to confer cytoprotection in FA fibroblasts against hydrogen peroxide (H2O2) stress.

The subject of data set [4] is aconitase. As to the kind of experiment: Aconitase activity in enriched-mitochondrial pellets of FA fibroblasts. The data set is classed as cell-based, human. On the set-up: aconitase activity after erastin: dose or concentration left out as unconfirmed. Here is the method:
Aconitase activity was measured as a result of formation of NADH and normalized to citrate synthase activity. FIG. 12B, pretreatment of AST with varying concentrations in FA fibroblasts for 4 h followed by 24 h treatment with erastin ([…]). Assays were conducted on enriched-mitochondrial pellets. Results are the means±SEM of n≥3 for all concentrations. *P<0.05, **P<0.005, ***P<0.0005, ****P<0.0001 for comparisons with the […]. Group comparisons are determined by a one-way analysis of variance (ANOVA) with Dunnet's correction post-hoc test using GraphPad Prism 8;
FXN deficiency results in diminished activity of various mitochondrial proteins that contain Fe—S cluster cofactors. For example, aconitase activity is affected in FA fibroblasts. Rötig et al., 1997. Aconitase catalyzes the stereospecific isomerization of citrate to isocitrate in the tricarboxylic acid cycle and its activity is highly dependent on an intact [4Fe-4S]^2+ cluster. We examined the impact of RSSH in FA fibroblasts on aconitase activity, the increase of which is reflective of preserved or augmented Fe—S cluster biosynthesis. […] To corroborate further that AST can effectively preserve or enhance Fe—S cluster assembly under challenging biological conditions, we conducted analogous experiments replacing H2O2 with erastin.

With `COC(=O)C(NC(C)=O)C(C)(C)SSC(=O)Oc1ccccc1` (centres unmarked) [Precursor 1a, Methyl 2-acetamido-3-methyl-3-((phenoxycarbonyl)disulfaneyl)butanoate], in data set [1], the “t1/2 of decomposition in the presence of thiol” value is 38.4 ± 6.6 s. Moreover, the aconitase protein expression result in the data set on aconitase [2] (25 μM, 12 h pretreatment, 12 h H2O2, listed as AST) is given as “does not alter aconitase protein expression; also recorded: unaffected”. Moreover, the aconitase expression levels entry with aconitase [2] (in combination with erastin) was “no significant impact”. For the same compound, in data set [3], the FTH1 protein level entry is listed as “two-fold increase”. In the data set with FA fibroblasts, the “protection against erastin-induced ferroptosis” value was “nearly complete protection”. Besides, the “cytoprotection against H2O2 stress” value in the data set with FA fibroblasts (GM04078) was “attenuated”. The “aconitase activity after H2O2” value in the data set with aconitase [4] (4 h pretreatment at 10, 25, 50 μM, 75 mM H2O2) is given as “rescues aconitase activity to levels found in control”. Besides, in the data set with aconitase [4] (pretreatment), the “aconitase activity after erastin” value is on record as “attenuated this adverse effect”.
